Test results as given in PubChem BioAssay (NCI).
Several values for one entry are separate records, joined by “and”; a condition that tells them apart may be missing. Equal entries are not always repeated.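 Tested at 5 concentrations; 48 h exposure; 96-well plates; endpoints linearly interpolated, else capped at highest concentration. At the GI50, growth is halved. TGI: total growth inhibition.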

Tests used:
Assay in all cases: NCI-60 cell line screen, 48 h
MCF7 breast = system: MCF7 breast
DU-145 prostate = system: DU-145 prostate
UACC-62 melanoma = system: UACC-62 melanoma
OVCAR-3 ovarian = system: OVCAR-3 ovarian
NCI-H460 lung = system: NCI-H460 lung
OVCAR-8 ovarian = system: OVCAR-8 ovarian
T-47D breast = system: T-47D breast
M14 melanoma = system: M14 melanoma
UACC-257 melanoma = system: UACC-257 melanoma
CAKI-1 renal = system: CAKI-1 renal

SMILES	GI50 (MCF7 breast)	TGI (MCF7 breast)	GI50 (DU-145 prostate)	TGI (DU-145 prostate)	GI50 (UACC-62 melanoma)	TGI (UACC-62 melanoma)	GI50 (OVCAR-3 ovarian)	TGI (OVCAR-3 ovarian)	GI50 (NCI-H460 lung)	TGI (NCI-H460 lung)	GI50 (OVCAR-8 ovarian)	TGI (OVCAR-8 ovarian)	GI50 (T-47D breast)	TGI (T-47D breast)	GI50 (M14 melanoma)	TGI (M14 melanoma)	GI50 (UACC-257 melanoma)	TGI (UACC-257 melanoma)	GI50 (CAKI-1 renal)	TGI (CAKI-1 renal)
O=C(Nc1ccc(OCc2nnc(-c3ccccc3)o2)c(F)c1)Nc1ccc(Cl)c(C(F)(F)F)c1	2.29 µM	8.93 µM	1.8 µM	3.53 µM	2.48 µM	6.91 µM	2.06 µM	7.25 µM	1.52 µM	3.7 µM	2.57 µM	11.5 µM	2.31 µM	7.15 µM	2.97 µM	47 µM				
COc1ccc2cc(Cn3cc[n+](Cc4ccc5ccccc5c4)c3)ccc2c1	2.57 µM	9.88 µM	4.49 µM	16.9 µM	1.49 µM	3.25 µM	1.62 µM	4.01 µM	3.24 µM	12.7 µM	3.26 µM	13.1 µM	1.87 µM	7.56 µM	1.77 µM	4.21 µM	1.95 µM	5.09 µM		
CCC[CH2][Sn]1([CH2]CCC)[O]CC(CN2CCOCC2)[O]1 (stereo not drawn)					1.79 µM	4.55 µM	2.13 µM	8.23 µM	13.6 µM	26.5 µM	3.35 µM	10.8 µM			2.86 µM	10.3 µM	4.29 µM	15.1 µM	1.36 µM	6.51 µM
OCC1OC(n2cnc3c2NC=NC[C@H]3O)CC1O (stereo partly drawn)		500 µM		500 µM	> 588 µM	461 µM and > 588 µM	> 588 µM	500 µM and > 588 µM	> 588 µM	480 µM and > 588 µM		500 µM		281 µM	> 588 µM	500 µM and > 588 µM		468 µM	351 µM and > 588 µM	495 µM and > 588 µM
COc1ccc(C(=O)CC(=O)C(=O)Nc2ccc(C)c(C)c2)cc1						> 100 µM		> 100 µM		> 56.8 µM		> 100 µM				> 100 µM		> 100 µM		> 100 µM
Cc1nn(-c2ccccc2)c2nc3c(nc12)C1=NCCN1C(c1ccc(Cl)cc1)N3 (stereo not drawn)			5.9 µM	17.9 µM	1.95 µM	3.8 µM	2.63 µM	7.18 µM	2.19 µM	5.03 µM	6.29 µM	21 µM	1.74 µM	3.42 µM	1.98 µM	3.86 µM	1.79 µM	3.49 µM	13.2 µM	27.3 µM
COc1ccc(NC(=O)CC(=O)N2N=C(N(CCC#N)c3cccc(C)c3)CC2c2ccccc2)cc1 (stereo not drawn)						> 100 µM		> 100 µM		> 100 µM		> 100 µM				> 100 µM		> 100 µM		> 100 µM
O=C1OC(c2ccccc2)=N/C1=C\c1cc(Cl)ccc1Cl						> 100 µM				> 100 µM						> 100 µM		> 100 µM		
Oc1ccc(-c2cn3cc(Cl)sc3n2)cc1	6.77 µM	26.9 µM			5.36 µM	41.6 µM	22.5 µM	64.1 µM	12.9 µM	53.5 µM	56.3 µM	> 100 µM			20.1 µM	56.8 µM	46.2 µM	> 100 µM	41.5 µM	> 100 µM
COC(=O)C(Cc1ccccc1)NC(=O)Cn1ccnc1[N+](=O)[O-] (stereo not drawn)						> 100 µM				> 100 µM		> 100 µM				> 100 µM		> 100 µM		> 100 µM
O=C1CC[C@H](c2ccc(O)c3c2C(=O)[C@@H]2O[C@@H]2C3=O)c2cccc(O)c21	1.17 µM	4.2 µM			1.75 µM	3.73 µM			3.74 µM	30.4 µM	3.36 µM	11.2 µM	1.27 µM	3.81 µM	1.9 µM	4.09 µM	2.98 µM	9 µM	1.41 µM	9.33 µM
O=C(c1nc2ccc(Cl)cc2[nH]c1=O)C(O)c1ccc2c(c1)OCO2 (stereo not drawn)						> 100 µM				> 100 µM		> 100 µM				> 100 µM		> 100 µM		
Cc1ccc(C(=O)C#Cc2c[nH]c(=O)[nH]c2=O)cc1						21.8 µM		29.8 µM		33.8 µM		25.1 µM				35 µM		34.6 µM		30.5 µM
O=C(Cc1ccccc1)NC(c1ccc(Cl)cc1)c1c(O)ccc2ccccc12 (stereo not drawn)	2.66 µM	9.37 µM	4.68 µM	17 µM	2.25 µM	6.07 µM	2.97 µM	7.64 µM	2.66 µM	7.61 µM	3.56 µM	16.9 µM	3.65 µM	13.8 µM			2.77 µM	10.4 µM	2.52 µM	10.2 µM
COC1=C2C[C@@H](C)C[C@@H](OC)[C@@H](O)[C@H](C)/C=C(\C)[C@@H](OC(N)=O)[C@H](OC)/C=C\C=C(/C)C(=O)NC(=CC1=O)C2=O				4.66 µM and 10.3 µM and 14.2 µM														5.05 µM and 12.7 µM and 2.5 µM		
COc1ccc(C(=O)C(C(=O)C(=O)NC2C3CC4CC(C3)CC2C4)c2ccc(OC)cc2)cc1 (stereo not drawn)						> 100 µM		> 100 µM		> 100 µM		> 100 µM				> 100 µM		> 100 µM		> 100 µM
COC(=O)CS(=O)c1ccccc1 (stereo not drawn)						> 100 µM		> 100 µM		> 100 µM		87.9 µM				> 100 µM		> 100 µM		> 100 µM
O=NN/C(=C1\Nc2ccc([N+](=O)[O-])cc2NC1=O)C(O)c1ccc([N+](=O)[O-])cc1 (stereo not drawn)						> 100 µM		> 100 µM		> 100 µM		> 100 µM				> 100 µM		> 100 µM		> 100 µM
Cc1ccc(NC2=C(Cl)C(=O)N(Cc3ccccc3)C2=O)cc1Cl	3.3 µM	13.7 µM	14.4 µM	27.8 µM	3.85 µM	16.8 µM	3.82 µM	15 µM	6.78 µM	23.6 µM	2.32 µM	9.93 µM	4.3 µM	25.3 µM	11 µM	22.9 µM			5.92 µM	26 µM
